Assay results reported in patent US20110245293A1, “PHARMACEUTICAL PRODUCT COMPRISING A MUSCARINIC RECEPTOR ANTAGONIST AND A BETA-2-ADRENOCEPTOR AGONIST” (priority 2008, published 2011).
Counter-ions that a name gives are not always drawn.

How the values were obtained:
Adrenergic β2 = biological target: T1, Adrenergic β2 (Homo sapiens, UniProt P07550); assay: Adrenergic β2 mediated cAMP production in H292 cells (AlphaScreen); format: cell-based; conditions: Intrinsic Activity as a fraction relative to the maximum activity of formoterol
T1 construct: endogenous in cells; host or cells: H292 cells
T1 sequence (P07550 whole entry): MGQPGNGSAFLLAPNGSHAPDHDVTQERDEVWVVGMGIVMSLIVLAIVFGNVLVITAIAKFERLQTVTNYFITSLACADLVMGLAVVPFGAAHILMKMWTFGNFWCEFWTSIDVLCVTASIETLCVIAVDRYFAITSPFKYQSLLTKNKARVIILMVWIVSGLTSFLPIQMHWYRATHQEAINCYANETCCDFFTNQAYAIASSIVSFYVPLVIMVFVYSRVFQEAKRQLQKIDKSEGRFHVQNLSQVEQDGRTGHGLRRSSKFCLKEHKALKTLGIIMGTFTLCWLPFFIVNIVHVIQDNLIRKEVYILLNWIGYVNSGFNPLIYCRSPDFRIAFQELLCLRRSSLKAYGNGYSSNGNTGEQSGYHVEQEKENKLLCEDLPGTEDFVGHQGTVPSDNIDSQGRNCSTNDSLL
Procedure: Adrenergic β2 Mediated cAMP Production
H292 cells were grown in 225 cm2 flasks incubator at 37° C., 5% CO2 in RPMI medium containing, 10% (v/v) FBS (foetal bovine serum) and 2 mM L-glutamine.
Adherent H292 cells were removed from tissue culture flasks by treatment with Accutase™ cell detachment solution for 15 minutes. Flasks were incubated for 15 minutes in a humidified incubator at 37° C., 5% CO2. Detached cells were re-suspended in RPMI media (containing 10% (v/v) FBS and 2 mM L-glutamine) at 0.05×10^6 cells per mL. 5000 cells in 100 μL were added to each well of a tissue-culture-treated 96-well plate and the cells incubated overnight in a humidified incubator at 37° C., 5% CO2. The culture media was removed and cells were washed twice with 100 μL assay buffer and replaced with 50 μL assay buffer (HBSS solution containing 10 mM HEPES pH7.4 and 5 mM glucose). Cells were rested at room temperature for 20 minutes after which time 25 μL of rolipram (1.2 mM made up in assay buffer containing 2.4% (v/v) dimethylsulphoxide) was added. Cells were incubated with rolipram for 10 minutes after which time Compound A was added and the cells were incubated for 60 minutes at room temperature. The final rolipram concentration in the assay was 300 μM and final vehicle concentration was 1.6% (v/v) dimethylsulphoxide. The reaction was stopped by removing supernatants, washing once with 100 μL assay buffer and replacing with 50 μL lysis buffer. The cell monolayer was frozen at −80° C. for 30 minutes (or overnight).
The concentration of cAMP (cyclic adenosine monophosphate) in the cell lysate was determined using AlphaScreen™ methodology. […] The AlphaScreen™ signal was measured using an EnVision spectrophotometer (Perkin-Elmer Inc.) with the recommended manufacturer's settings. cAMP concentrations were determined by reference to a calibration curve determined in the same experiment using standard cAMP concentrations. […] Intrinsic Activity was expressed as a fraction relative to the maximum activity determined for formoterol in each experiment.

[1] = Dynamic vapour sorption (DVS) analysis of crystalline material; format: physicochemical; conditions: at 80% RH, 25° C.
Procedure: Dynamic vapour sorption (DVS) analysis was performed on a Surface Measurement systems (SMS) DVS-Intrinsic moisture sorption analyser. The instrument was controlled by SMS Analysis Suite software (DVS-Intrinsic Control v1.0.0.30). Analysis of the data was performed using Microsoft Excel 2007 together DVS Standard Analysis Suite (v6.0.0.7). Sample temperature was maintained at 25° C. and the sample humidity was obtained by mixing streams of wet and dry nitrogen at a total flow rate of 200 mlmin^−1. The relative humidity was measured using a calibrated Rotronic probe (dynamic range 1-100% Relative Humidity (RH)) located close to the sample. The weight change of the sample as a function of % RH was constantly monitored by the microbalance (accuracy±0.005 mg). Typically a PXRD would be run prior to analysis. 20 mg of sample was then placed in a tared stainless steel mesh basket under ambient conditions. The sample was loaded and unloaded at 40% RH and 25° C. (typical room conditions) and the sample subjected to a graduated DVS regime over 2 cycles using the parameters shown in Table 1.

[2] = Gravimetric Vapour Sorption (GVS) of crystalline material; format: physicochemical; conditions: at 80% RH
Procedure: Gravimetric Vapour Sorption (GVS) profiles were measured using a Surface Measurements Systems Dynamic Vapour Sorption DVS-1 or a DVS Advantage instrument. The solid sample ca. 1-5 mg was placed into a glass vessel and the weight of the sample was recorded during a dual cycle step method (40 to 90 to 0 to 90 to 0% relative humidity (RH), in steps of 10% RH).

Row | Compound | β2 Int Act (Adrenergic β2) | GVS mass increase [2] | also measured
1 | CCN(CC)CCN(CCNCCc1ccc(O)c2[nH]c(=O)sc12)C(=O)CCOCCc1cccc2ccccc12 [BA1, N-[2-(Diethylamino)ethyl]-N-(2-{[2-(4-hydroxy-2-oxo-2,3-dihydro-1,3-benzothiazol-7-yl)ethyl]amino}ethyl)-3-[2-(1-naphthyl)ethoxy]propanamide dihydrobromide] | 0.8 | – | –
2 | CCN(CC)CCN(CCNCCc1ccc(O)c2[nH]c(=O)sc12)C(=O)CCOCCc1cccc(Cl)c1 [BA2, N-[2-(Diethylamino)ethyl]-N-(2-{[2-(4-hydroxy-2-oxo-2,3-dihydro-1,3-benzothiazol-7-yl)ethyl]amino}ethyl)-3-[2-(3-chlorophenyl)ethoxy]propanamide dihydrobromide] | 0.7 | – | –
3 | O=c1[nH]c2c(O)ccc([C@@H](O)CNCCSCCCNCCc3ccccc3Cl)c2s1 [BA3, 7-[(1R)-2-({2-[(3-{[2-(2-Chlorophenyl)ethyl]amino}propyl)thio]ethyl}amino)-1-hydroxyethyl]-4-hydroxy-1,3-benzothiazol-2(3H)-one dihydrobromide] | 0.8 | – | –
4 | O=S(=O)([O-])c1ccccc1.O[C@](c1ccccc1)(c1cc(C[N+]23CCC(CC2)[C@@H](Oc2ccc(F)cc2)C3)on1)C1CCCCC1 [Example 2, (R)-1-[3-((R)-Cyclohexyl-hydroxy-phenyl-methyl)-isoxazol-5-ylmethyl]-3-(4-fluoro-phenoxy)-1-azonia-bicyclo[2.2.2]octane benzenesulfonate] | – | – | DVS weight increase [1]: 0.2 % (% w/w)
5 | O[C@](c1ccccc1)(c1cc(C[N+]23CCC(CC2)[C@@H](Oc2cccc(F)c2)C3)on1)C1CCCCC1.[Cl-] [Example 3, (R)-1-[3-((R)-Cyclohexyl-hydroxy-phenyl-methyl)-isoxazol-5-ylmethyl]-3-(3-fluoro-phenoxy)-1-azonia-bicyclo[2.2.2]octane chloride] | – | – | GVS mass increase 1st cycle ([2]; 1st cycle): approximately 5%; GVS mass increase 2nd cycle ([2]; 2nd cycle): ~6.5%
6 | O[C@](c1ccccc1)(c1cc(C[N+]23CCC(CC2)[C@@H](Oc2cccc(F)c2)C3)on1)C1CCCCC1 [Example 4, (R)-1-[3-((R)-Cyclohexyl-hydroxy-phenyl-methyl)-isoxazol-5-ylmethyl]-3-(3-fluoro-phenoxy)-1-azonia-bicyclo[2.2.2]octane 2-hydroxy-ethanesulfonate] | – | no mass increase | –
7 | O[C@](c1ccccc1)(c1nnc(C[N+]23CCC(CC2)[C@@H](Oc2ccc(F)cc2)C3)o1)C1CCCCC1.[Br-] [Example 5, (R)-1-[5-((R)-Cyclohexyl-hydroxy-phenyl-methyl)-[1,3,4]oxadiazol-2-ylmethyl]-3-(4-fluoro-phenoxy)-1-azonia-bicyclo[2.2.2]octane bromide] | – | approximately 0.8% | –
8 | Cc1ccc(O[C@H]2C[N+]3(Cc4cc(C(O)(c5ccccc5)c5ccccc5)no4)CCC2CC3)cc1F.[Br-] [Example 7, (R)-3-(3-Fluoro-4-methyl-phenoxy)-1-[3-(hydroxy-diphenyl-methyl)-isoxazol-5-ylmethyl]-1-azonia-bicyclo[2.2.2]octane bromide] | – | approximately 0.1% | –
